The text below walks through data of the Kinase Knowledgebase extract (Sharma et al. 2016).

For assay [1], the target named is CDK2 (human) (UniProt P24941). In words: Cell-Based Assay.
The target of assay [2] is CDK2 (UniProt P24941). Description: Enzyme Assay.

The IC50 is the concentration at which inhibition is half-maximal. Read a high IC50 as a need for much substance. For the compound `O=[N+]([O-])c1ccc2c(c1)C(c1ccccc1Cl)=Nc1c(n[nH]c1-[o+]1ccnn1)N2`, the IC50 in assay [1] (mda-mb-435) and in assay [2] was 10 to 30 µM in each case.
For `O=[N+]([O-])c1ccc2c(c1)C(c1ccccc1Cl)=Nc1c(n[nH]c1Cc1ccccc1)N2`, the IC50 is 10 to 30 µM in assay [1] (hct 116), 10 to 30 µM in assay [1] (mda-mb-435), 10 to 30 µM in assay [1] (sw480) and 1 to 9.99 µM in assay [2].
`c1ccc(C2=Nc3c[nH]nc3Nc3ccccc32)cc1`: the IC50 fell in the range of 10 to 30 µM in assay [1] (hct 116), 10 to 30 µM in assay [1] (sw480) and 1 to 9.99 µM in assay [2].
Take `Cc1ccsc1-c1[nH]nc2c1N=C(c1ccccc1Cl)c1cc([N+](=O)[O-])ccc1N2`: the IC50 in assay [1] (hct 116) is 10 to 30 µM; in assay [2], 0.01 to 0.99 µM.
`O=[N+]([O-])c1ccc2c(c1)C(c1ccccc1Cl)=Nc1c(n[nH]c1-[n+]1ccc[nH]1)N2`: the values for the IC50 in assay [1] (mda-mb-435) and in assay [2] were 10 to 30 µM and 0.01 to 0.99 µM, respectively.
On to `O=[N+]([O-])c1ccc2c(c1)C(c1ccccc1Cl)=Nc1c(n[nH]c1-c1ccc(-n3cccc3)cc1)N2`, for which the IC50 in assay [1] (hct 116) and in assay [2] was 10 to 30 µM throughout.
Turning to `CS(=O)(=O)c1ccc2c(c1)C(c1ccccc1)=Nc1c[nH]nc1N2`, the results for the IC50 in assay [1] (hct 116) and in assay [2] were 10 to 30 µM and 1 to 9.99 µM, respectively.
Taken in the same sequence, the figures for `O=[N+]([O-])c1ccc2c(c1)C(c1ccccc1Cl)=Nc1c(n[nH]c1-c1cccc(C(F)(F)F)c1)N2` were 10 to 30 µM and 10 to 30 µM.
Consider `O=[N+]([O-])c1ccc2c(c1)C(c1ccccc1Cl)=Nc1c(n[nH]c1-c1cccs1)N2`, for which the IC50 was 10 to 30 µM in assay [1] (hct 116), 10 to 30 µM in assay [1] (sw480) and 0.01 to 0.99 µM in assay [2].
`Cc1[nH]nc2c1N=C(c1ccccc1)c1cc(I)ccc1N2`: the IC50 in assay [1] (sw480) lay within 10 to 30 µM; in assay [2], 1 to 9.99 µM.
For the compound `O=[N+]([O-])c1ccc2c(c1)C(c1ccccc1Cl)=Nc1c(n[nH]c1-c1cc3ccccc3o1)N2`, the IC50 is 10 to 30 µM in assay [1] (hct 116) and 1 to 9.99 µM in assay [2].
With `Cc1ccccc1-c1[nH]nc2c1N=C(c1ccccc1Cl)c1cc([N+](=O)[O-])ccc1N2`, the concentration for half-maximal inhibition (IC50) in assay [1] (hct 116) lay in the range of 10 to 30 µM; in assay [1] (sw480), 10 to 30 µM; in assay [2], 1 to 9.99 µM.
For `CCOC(=O)c1[nH]nc2c1N=C(c1ccccc1Cl)c1cc([N+](=O)[O-])ccc1N2`, the IC50 in assay [1] (mda-mb-435) lay within 10 to 30 µM; in assay [2], 1 to 9.99 µM.
Turning to `O=[N+]([O-])c1ccc2c(c1)C(c1ccccc1Cl)=Nc1c(n[nH]c1CCc1ccccc1)N2`, the IC50 in assay [1] (hct 116) was 10 to 30 µM; in assay [1] (mda-mb-435) it was 10 to 30 µM; in assay [1] (sw480) it was 10 to 30 µM; in assay [2], 1 to 9.99 µM.
